# Measured values: US11780826B2 (Amgen Inc., priority 2017, dated 2023)
# Tested on: Bovine cardiac myofibrils
# Assay: In vitro model of dose-dependent myofibril ATPase modulation (AC1.4, pyruvate kinase/lactate dehydrogenase-coupled ATPase assay at pCa25)
# Format: biochemical
# Settings: concentration at which ATPase activity was 1.4-fold higher than the bottom of the dose curve, mean of a minimum of two independent tests
# How it was run: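 Coupled-enzyme ATPase on bovine heart myofibrils, 1 mM ATP, EGTA/CaCl2 buffered; 340 nm readout.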
row,AC1.4 [µM],SMILES
1,3.626,"CCS(=O)(=O)c1cccc(C(=O)N2[C@@H](C(=O)NCc3cc(F)c(Cl)cc3F)C[C@H]3C[C@H]32)c1 [Example 617, (1R,3R,5R)-N-(4-chloro-2,5-difluorobenzyl)-2-(3-(ethylsulfonyl)benzoyl)-2-azabicyclo[3.1.0]hexane-3-carboxamide]"
2,3.9205,"Cc1ccc(Cl)cc1CNC(=O)[C@H]1CCCN1C(=O)[C@H]1CCCN(S(=O)(=O)N2CC(C#N)C2)C1 [Example 618, N-(5-chloro-2-methylbenzyl)-1-(((3S)-1-((3-cyano-1-azetidinyl)sulfonyl)-3-piperidinyl)carbonyl)-D-prolinamide]"
3,3.929,"CS(=O)(=O)c1cccc(C(=O)N2C[C@H](F)C[C@@H]2C(=O)N[C@@H](c2ccc(C(F)(F)F)cc2F)C2CC2)c1 [Example 619, (4R)-N-((R)-cyclopropyl(2-fluoro-4-(trifluoromethyl)phenyl)methyl)-4-fluoro-1-(3-(methylsulfonyl)benzoyl)-D-prolinamide]"
4,3.94,"N#CC1CC(S(=O)(=O)c2cccc(C(=O)N3CCCC[C@@H]3C(=O)NCc3ccc(Cl)nc3)c2)C1 (stereo partly drawn) [Example 620, (2R)-N-((6-chloro-3-pyridinyl)methyl)-1-((3-((cis-3-cyanocyclobutyl)sulfonyl)phenyl)carbonyl)-2-piperidinecarboxamide,(2R)-N-((6-chloro-3-pyridinyl)methyl)-1-((3-((trans-3-cyanocyclobutyl)sulfonyl)phenyl)carbonyl)-2-piperidinecarboxamide]"
5,3.9478,"Cc1cc(C(=O)N2[C@@H](C(=O)N[C@@H](c3cc(F)c(Cl)cc3F)C3COC3)C[C@H]3C[C@H]32)ccn1 [Example 621, (1R,3R,5R)-N-((R)-(4-chloro-2,5-difluorophenyl)(3-oxetanyl)methyl)-2-((2-methyl-4-pyridinyl)carbonyl)-2-azabicyclo[3.1.0]hexane-3-carboxamide]"
6,3.9515,"COc1cc2c(cc1F)CCC2NC(=O)[C@H]1CCCN1C(=O)[C@H]1CCCN(S(=O)(=O)N2CC(C#N)C2)C1 (stereo partly drawn) [Example 622, (2R)-1-((S)-1-((3-cyanoazetidin-1-yl)sulfonyl)piperidine-3-carbonyl)-N-(5-fluoro-6-methoxy-2,3-dihydro-1H-inden-1-yl)pyrrolidine-2-carboxamide]"
7,3.975,"N#CC1CN(S(=O)(=O)N2CCC[C@H](C(=O)N3CCC[C@@H]3C(=O)NCc3c(F)c(F)cc(F)c3F)C2)C1 [Example 623, 1-(((3S)-1-((3-cyano-1-azetidinyl)sulfonyl)-3-piperidinyl)carbonyl)-N-(2,3,5,6-tetrafluorobenzyl)-D-prolinamide]"
8,4.01,"CCC(NC(=O)[C@H]1CCCN1C(=O)[C@H]1CCCN(S(=O)(=O)N2CC(C#N)C2)C1)c1ccc(OC)cc1 (stereo partly drawn) [Example 625, (2R)-1-((S)-1-((3-cyanoazetidin-1-yl)sulfonyl)piperidine-3-carbonyl)-N-(1-(4-methoxyphenyl)propyl)pyrrolidine-2-carboxamide]"
9,4.031,"NC(=O)[C@H]1C[C@H](S(=O)(=O)N2CCC[C@H](C(=O)N3CCC[C@@H]3C(=O)NCc3ccc(C(F)(F)F)cc3)C2)C1 [Example 626, 1-(((3S)-1-((trans-3-carbamoylcyclobutyl)sulfonyl)-3-piperidinyl)carbonyl)-N-(4-(trifluoromethyl)benzyl)-D-prolinamide]"
10,4.037,"CC(C)(C)[C@@H](NC(=O)[C@H]1CCCN1C(=O)c1cccc(S(=O)(=O)N2CC(C#N)C2)c1)c1ccc(C(F)(F)F)cc1 [Example 627, 1-(3-((3-cyano-1-azetidinyl)sulfonyl)benzoyl)-N-((1R)-2,2-dimethyl-1-(4-(trifluoromethyl)phenyl)propyl)-D-prolinamide]"
11,4.051,"CC[C@H](NC(=O)[C@H]1CCCN1C(=O)c1cccc(S(=O)(=O)N(C)C)c1)c1ccc(Cl)c(F)c1 [Example 629, N-((1S)-1-(4-chloro-3-fluorophenyl)propyl)-1-(3-(dimethylsulfamoyl)benzoyl)-D-prolinamide]"
12,3.9185,"CC[C@@H](NC(=O)[C@H]1CCCN1C(=O)c1cccc(S(C)(=O)=O)c1)c1ccc(C(F)(F)F)cc1F [Example 630, N-((1R)-1-(2-fluoro-4-(trifluoromethyl)phenyl)propyl)-1-(3-(methylsulfonyl)benzoyl)-D-prolinamide]"
13,4.082,"O=C(NCc1ccc(C(F)(F)F)cc1)[C@H]1CCCN1C(=O)[C@H]1CCCN(S(=O)(=O)N2CC(O)C2)C1 [Example 631, 1-(((3S)-1-((3-hydroxy-1-azetidinyl)sulfonyl)-3-piperidinyl)carbonyl)-N-(4-(trifluoromethyl)benzyl)-D-prolinamide]"
14,4.0915,"COc1cc(C(C)NC(=O)[C@H]2CCCN2C(=O)[C@H]2CCCN(S(=O)(=O)N3CC(C#N)C3)C2)ccc1OC(F)F (stereo partly drawn) [Example 632, (2R)-1-((S)-1-((3-cyanoazetidin-1-yl)sulfonyl)piperidine-3-carbonyl)-N-(1-(4-(difluoromethoxy)-3-methoxyphenyl)ethyl)pyrrolidine-2-carboxamide]"
15,4.0935,"COc1ccc(F)cc1C(C)NC(=O)[C@H]1CCCN1C(=O)[C@H]1CCCN(S(=O)(=O)N2CC(C#N)C2)C1 (stereo partly drawn) [Example 633, (2R)-1-((S)-1-((3-cyanoazetidin-1-yl)sulfonyl)piperidine-3-carbonyl)-N-(1-(5-fluoro-2-methoxyphenyl)ethyl)pyrrolidine-2-carboxamide]"
16,4.1045,"CN(C)S(=O)(=O)c1cccc(C(=O)N2CCC[C@@H]2C(=O)N[C@H](CO)c2ccc(Cl)c(F)c2)c1 [Example 634, N-((1S)-1-(4-chloro-3-fluorophenyl)-2-hydroxyethyl)-1-(3-(dimethylsulfamoyl)benzoyl)-D-prolinamide]"
17,4.1355,"C[C@@H](NC(=O)[C@H]1CCCN1C(=O)c1cccc(S(=O)(=O)N2CC3(CC3)C2)c1)c1ccc(Cl)c(Cl)c1 [Example 635, 1-((3-(5-azaspiro[2.3]hex-5-ylsulfonyl)phenyl)carbonyl)-N-((1R)-1-(3,4-dichlorophenyl)ethyl)-D-prolinamide]"
18,3.919,"C[C@@H](NC(=O)[C@H]1CCCN1C(=O)c1cccc(S(C)(=O)=O)c1)c1cc(F)c(Cl)cc1F [Example 636, N-((1R)-1-(4-chloro-2,5-difluorophenyl)ethyl)-1-(3-(methylsulfonyl)benzoyl)-D-prolinamide]"
19,4.1835,"O=C(N[C@@H](c1cc(F)c(Cl)cc1F)C1COC1)[C@H]1C[C@@H](O)CN1C(=O)c1cncc(C(F)(F)F)c1 [Example 638, (4R)-N-((R)-(4-chloro-2,5-difluorophenyl)(3-oxetanyl)methyl)-4-hydroxy-1-((5-(trifluoromethyl)-3-pyridinyl)carbonyl)-D-prolinamide]"
20,4.1855,"CN1CCN(S(=O)(=O)N2CC(C#N)C2)CC1C(=O)N1CCC[C@@H]1C(=O)NCc1ccc(C(F)(F)F)cc1 (stereo partly drawn) [Example 639, (2R)-1-(4-((3-cyanoazetidin-1-yl)sulfonyl)-1-methylpiperazine-2-carbonyl)-N-(4-(trifluoromethyl)benzyl)pyrrolidine-2-carboxamide]"
21,4.2315,"CCc1ccnc(C(=O)N2[C@@H](C(=O)N[C@@H](c3cc(F)c(Cl)cc3F)C3CC3)C[C@H]3C[C@H]32)c1 [Example 640, (1R,3R,5R)-N-((R)-(4-chloro-2,5-difluorophenyl)(cyclopropyl)methyl)-2-((4-ethyl-2-pyridinyl)carbonyl)-2-azabicyclo[3.1.0]hexane-3-carboxamide]"
22,4.262,"O=C(N[C@@H](c1cc(F)c(Cl)cc1F)C1CC1)[C@H]1C[C@@H](O)CN1C(=O)c1cncc(C(F)(F)F)c1 [Example 641, (4R)-N-((R)-(4-chloro-2,5-difluorophenyl)(cyclopropyl)methyl)-4-hydroxy-1-((5-(trifluoromethyl)-3-pyridinyl)carbonyl)-D-prolinamide]"
23,4.2755,"Cc1ccc(F)c(CNC(=O)[C@H]2CCCN2C(=O)[C@H]2CCCN(S(=O)(=O)N3CC(C#N)C3)C2)c1 [Example 642, 1-(((3S)-1-((3-cyano-1-azetidinyl)sulfonyl)-3-piperidinyl)carbonyl)-N-(2-fluoro-5-methylbenzyl)-D-prolinamide]"
24,4.3125,"Cc1cccc(CNC(=O)[C@H]2CCCN2C(=O)[C@H]2CCCN(S(=O)(=O)N3CC(C#N)C3)C2)c1 [Example 643, 1-(((3S)-1-((3-cyano-1-azetidinyl)sulfonyl)-3-piperidinyl)carbonyl)-N-(3-methylbenzyl)-D-prolinamide]"
25,4.3367,"N#CC1CN(S(=O)(=O)c2cccc(C(=O)N3CCC[C@@H]3C(=O)NCc3ccc(C(F)(F)F)cn3)c2)C1 [Example 644, 1-((3-((3-cyano-1-azetidinyl)sulfonyl)phenyl)carbonyl)-N-((5-(trifluoromethyl)-2-pyridinyl)methyl)-D-prolinamide]"
26,4.351,"O=C(NCc1ccc(C(F)(F)F)cc1)[C@H]1CCCN1C(=O)[C@H]1CCCN(S(=O)(=O)NC2CS(=O)(=O)C2)C1 [Example 645, 1-(((3S)-1-((l,l-dioxido-3-thietanyl)sulfamoyl)-3-piperidinyl)carbonyl)-N-(4-(trifluoromethyl)benzyl)-D-prolinamide]"
27,4.377,"COc1ccc(S(C)(=O)=O)cc1C(=O)N1CCCC[C@@H]1C(=O)N[C@@H](c1ccc(C(F)(F)F)cc1F)C1CC1 [Example 646, (2R)-N-((R)-cyclopropyl(2-fluoro-4-(trifluoromethyl)phenyl)methyl)-1-(2-methoxy-5-(methylsulfonyl)benzoyl)-2-piperidinecarboxamide]"
28,4.4125,"CC(C)(C)c1cc(C(=O)N2[C@@H](C(=O)N[C@@H](c3ccc(C(F)(F)F)cc3F)C3COC3)C[C@H]3C[C@H]32)ccn1 [Example 647, (1R,3R,5R)-N-((R)-(2-fluoro-4-(trifluoromethyl)phenyl)(3-oxetanyl)methyl)-2-((2-(2-methyl-2-propanyl)-4-pyridinyl)carbonyl)-2-azabicyclo[3.1.0]hexane-3-carboxamide]"
